For one assay, the system named is EL-4 cells. Kind of assay: Cell agglutination assay, EL-4 cells. Format: cell-based. The following applies: inhibitor concentration not given. As for the experimental part:
(§1) T or B cells (4-8×10^4 cells) were added to 200 μl of medium (see above) containing 50 μl of either PBS (vehicle control), aminodextran, BBa-aminodextran, or CsA-BBa-aminodextran at a concentration of 5×10^-7 M, in the presence or absence of various inhibitors or solvent controls, gently agitated on a platform shaker for 15 minutes at 25° C., incubated without agitation for 2-3 hours at 25° C., placed in a refrigerator and examined for agglutination periodically. The end points can begin to be seen after about 2-3 hours.

For a further assay, the system named is DO-11.10. Kind of assay: Cell agglutination assay, DO-11.10 T-cell hybridoma. Type of assay: cell-based. The procedure: as §1
Another assay has as its system 32-6.F12. Kind of assay: Cell agglutination assay, 32-6.F12 T-cell hybridoma. Format: cell-based. As for the experimental part: as §1
The test system of assay [1] is rabbit antibody R575 (anti-CsA). Kind of assay: Inhibition RIA for antibody specificity with CsA analogues. Format: binding. To be noted: for IC50: read-out: IC50 (Concentration for 50% inhibition), inhibition of [3H]dihydro CsA binding to R575, overnight at 4° C.; for affinity group for the antibodies (inhibition RIA): result in words. The procedure: Serum antibodies were detected by a modification of the published radioimmunoassay (5, 12 ). […] Binding by diluted preimmune serum was used as a control. Free and bound ligand were separated with charcoal supplied by Sandoz according to their procedure.
The cyclosporin derivatives were dissolved in 100% ethanol at a concentration of 5.0 mg/ml, stored at -20° C., and diluted to final concentrations of 0.27 nM to 2.7 μM in Sandoz buffer B for the inhibition experiments.

The values that follow come from patent US5350574A, “Derivatives of cyclosporina A, antibodies directed thereto and uses thereof” (The Trustees of Columbia University in the City of New York, priority 1991, dated 1994).

“Also recorded” adds a separate entry of the source.

Turning to `O=C(O)c1ccc(C(=O)c2ccccc2)cc1` [BBa, 4-Benzyoylbenzoic acid], the “inhibition of agglutination of EL-4 cells by CsA-BBa-aminodextran” value in the assay with EL-4 cells was “no inhibition”. Further, the “inhibition of agglutination of DO-11.10 cells by CsA-BBa-aminodextran” value in the assay on DO-11.10 is “not”. The “inhibition of agglutination of 32-6.F12 cells by CsA-BBa-aminodextran” value in the assay with 32-6.F12 is given as “not”.

As to `C/C=C/C[C@@H](C)[C@@H](O)[C@H]1C(=O)N[C@@H]([C@@H](C)O)C(=O)N(C)CC(=O)N(C)[C@@H](CC(C)C)C(=O)N[C@@H](C(C)C)C(=O)N(C)[C@@H](CC(C)C)C(=O)N[C@@H](C)C(=O)N[C@H](C)C(=O)N(C)[C@@H](CC(C)C)C(=O)N(C)[C@@H](CC(C)C)C(=O)N(C)[C@@H](C(C)C)C(=O)N1C` [CsC], in assay [1], the IC50 turned out to be 11.5 nM and the “affinity group for the antibodies (inhibition RIA)” value (shortened to “affinity group … (inhibition RIA)”) is listed as “Moderate affinities”.

For the compound `C/C=C/C[C@@H](C)[C@@H](O)[C@H]1C(=O)N[C@@H](C(C)C)C(=O)N(C)CC(=O)N(C)[C@@H](CC(C)C)C(=O)N[C@@H](C(C)C)C(=O)N(C)[C@@H](CC(C)C)C(=O)N[C@@H](C)C(=O)N[C@H](C)C(=O)N(C)[C@@H](CC(C)C)C(=O)N(C)[C@@H](CC(C)C)C(=O)N(C)[C@@H](C(C)C)C(=O)N1C` [CsD], in assay [1], the IC50 stood at 4.3 nM and the “affinity group … (inhibition RIA)” value was “high affinity group; also recorded: bind best”.

In the case of `C/C=C/C[C@@H](C)[C@@H](O)[C@H]1C(=O)N[C@@H](CC)C(=O)N(C)CC(=O)N(C)[C@@H](CC(C)C)C(=O)N[C@@H](C(C)C)C(=O)N(C)[C@@H](CC(C)C)C(=O)N[C@@H](C)C(=O)N[C@H](C)C(=O)N(C)[C@@H](CC(C)C)C(=O)N(C)[C@@H](CC(C)C)C(=O)N(C)[C@@H]([C@@H](C)CC)C(=O)N1C` [Derivative 032], in assay [1], the IC50 worked out at 7 nM and the “affinity group … (inhibition RIA)” value is on record as “high affinity group; also recorded: bind best”.

Take `C/C=C/C[C@@H](C)[C@@H](O)[C@H]1C(=O)N[C@@H](CC)C(=O)N(C)CC(=O)N(C)[C@@H](CC(C)C)C(=O)N[C@@H](C(C)C)C(=O)N(C)[C@H](C)C(=O)N[C@@H](C)C(=O)N[C@H](C)C(=O)N(C)[C@@H](CC(C)C)C(=O)N(C)[C@@H](CC(C)C)C(=O)N(C)[C@@H](C(C)C)C(=O)N1C` [Derivative 039]: in assay [1], the IC50 was determined as 18 nM and the “affinity group … (inhibition RIA)” value is given as “Moderate affinities”.

As to `C/C=C/C[C@@H](C)[C@@H](OC(C)=O)[C@H]1C(=O)N[C@@H](CC)C(=O)N(C)CC(=O)N(C)[C@@H](CC(C)C)C(=O)N[C@@H](C(C)C)C(=O)N(C)[C@@H](CC(C)C)C(=O)N[C@@H](C)C(=O)N[C@H](C)C(=O)N(C)[C@@H](CC(C)C)C(=O)N(C)[C@@H](CC(C)C)C(=O)N(C)[C@@H](C(C)C)C(=O)N1C` [Derivative 243], in assay [1], the IC50 came out at 6 nM and the “affinity group … (inhibition RIA)” value is given as “high affinity group; also recorded: bind best”.

`C/C=C/C[C@@H](C)[C@@H](O)[C@H]1C(=O)N[C@@H](CC)C(=O)N2CCC[C@H]2C(=O)N(C)[C@@H](CC(C)C)C(=O)N[C@@H](C(C)C)C(=O)N(C)[C@@H](CC(C)C)C(=O)N[C@@H](C)C(=O)N[C@H](C)C(=O)N(C)[C@@H](CC(C)C)C(=O)N(C)[C@@H](CC(C)C)C(=O)N(C)[C@@H](C(C)C)C(=O)N1C` [Derivative 582]: in assay [1], the IC50 was 12 nM and the “affinity group … (inhibition RIA)” value is reported as “Moderate affinities”.

Consider `C/C=C/C[C@@H](C)[C@@H](O)[C@H]1C(=O)N[C@@H]([C@@H](C)OC(C)=O)C(=O)N(C)CC(=O)N(C)[C@@H](CC(C)C)C(=O)N[C@@H](C(C)C)C(=O)N(C)[C@@H](CC(C)C)C(=O)N[C@@H](C)C(=O)N[C@H](C)C(=O)N(C)[C@@H](CC(C)C)C(=O)N(C)[C@@H](CC(C)C)C(=O)N(C)[C@@H](C(C)C)C(=O)N1C` [Derivative 665], for which, in assay [1], the IC50 amounted to 4.8 nM and the “affinity group … (inhibition RIA)” value was “high affinity group; also recorded: bind best”.

As for `C/C=C/C[C@@H](C)[C@@H](O)[C@H]1C(=O)N[C@@H](CC)C(=O)N(C)CC(=O)N(C)[C@@H](CC(C)C)C(=O)N[C@@H](C(C)C)C(=O)N(C)[C@@H](CC(C)C)C(=O)N[C@@H](C)C(=O)N[C@H](COC(C)(C)C)C(=O)N(C)[C@@H](CC(C)C)C(=O)N(C)[C@@H](CC(C)C)C(=O)N(C)[C@@H](C(C)C)C(=O)N1C` [Derivative 717], in assay [1] (maximal inhibition by competing derivative), the “inhibition of [3H]CsA binding obtainable” value is “more than 50%”. Moreover, in assay [1], the IC50 was found to be 2700 nM and the “affinity group … (inhibition RIA)” value is on record as “inhibits very poorly; also recorded: low affinity”.
